According to ChEMBL document CHEMBL5579824, “Novel Hsp90-Targeting PROTACs: Enhanced synergy with cisplatin in combination therapy of cervical cancer” (Eur J Med Chem, 2024):
Calls of active or inactive are those of the source. The rule behind the calls is not given here.

Tests used:
SiHa [1] = test: Synergistic antiproliferative activity against human SiHa cells assessed as combination index at 0.75 uM incubated for 72 hrs in presence of 10 uM cisplatin by CCK-8 assay; type: functional
SiHa [2] = test: Induction of cell cycle arrest in human SiHa cells assessed as increase in accumulation of cells at G2/M pahse incubated after 48 hrs by PI staining based flow cytometry; type: functional; conditions: dose 0.05-10 µM
[3] = molecular target: T1, Protein cereblon/Heat shock protein HSP 90-alpha/Heat shock protein HSP 90-beta (Homo sapiens) (UniProt P07900+P08238+Q96SW2); test: Protac activity at CRBN/Hsp90 in human SiHa cells assessed as decrease in AKT protein expression level incubated for 10 hrs by Western blot analysis; type: cell-based; conditions: dose 0.01-1 µM
SiHa [4] = test: Synergistic antiproliferative activity against human SiHa cells assessed as combination index at 0.05 uM incubated for 72 hrs in presence of 1 uM cisplatin by CCK-8 assay; type: functional
SiHa [5] = test: Synergistic antiproliferative activity against human SiHa cells assessed as combination index at 5 uM incubated for 72 hrs in presence of 10 uM cisplatin by CCK-8 assay; type: functional
[6] = molecular target: T1, Protein cereblon/Heat shock protein HSP 90-alpha/Heat shock protein HSP 90-beta (Homo sapiens); test: Protac activity at CRBN/Hsp90 in human SiHa cells assessed as induction of Hsp90 degradation (causing hook effect) at > 0.075 uM incubated for 10 hrs by Western blot analysis; type: cell-based
SiHa [7] = test: Synergistic antiproliferative activity against human SiHa cells assessed as combination index at 5 uM incubated for 72 hrs in presence of 31.62 uM cisplatin by CCK-8 assay; type: functional
SiHa [8] = test: Synergistic antiproliferative activity against human SiHa cells assessed as combination index at 1 uM incubated for 72 hrs in presence of 1 uM cisplatin by CCK-8 assay; type: functional
SiHa [9] = test: Induction of cell cycle arrest in human SiHa cells assessed as accumulation of cells at G2/M pahse at 10 uM incubated after 48 hrs by PI staining based flow cytometry (reference value: 7.37 %); type: functional
SiHa [10] = test: Synergistic antiproliferative activity against human SiHa cells assessed as combination index at 5 uM incubated for 72 hrs in presence of 0.32 uM cisplatin by CCK-8 assay; type: functional
SiHa [11] = test: Induction of apoptosis in human SiHa cells assessed as late apoptotic cells at 1 uM incubated after 48 hrs by annexin V-FITC/PI staining based flow cytometry (reference value: 6.93 %); type: functional
SiHa [12] = test: Induction of apoptosis in human SiHa cells assessed as necrotic cells at 1 uM incubated after 48 hrs by annexin V-FITC/PI staining based flow cytometry (reference value: 0.08 %); type: functional
SiHa [13] = test: Synergistic antiproliferative activity against human SiHa cells assessed as combination index at 1 uM incubated for 72 hrs in presence of 31.62 uM cisplatin by CCK-8 assay; type: functional
SiHa [14] = test: Synergistic antiproliferative activity against human SiHa cells assessed as combination index at 5 uM incubated for 72 hrs in presence of 0.01 uM cisplatin by CCK-8 assay; type: functional
SiHa [15] = test: Induction of apoptosis in human SiHa cells assessed as early apoptotic cells at 0.05 uM incubated after 48 hrs by annexin V-FITC/PI staining based flow cytometry (reference value: 2.05 %); type: functional
SiHa [16] = test: Inhibition of cell migration in human SiHa cells at 0.05 uM measured for 24 to 48 hrs by microscope based wound healing assay; type: functional; conditions: time 24-48 hrs
SiHa [17] = test: Synergistic antiproliferative activity against human SiHa cells assessed as combination index at 10 uM incubated for 72 hrs in presence of 0.01 uM cisplatin by CCK-8 assay; type: functional
SiHa [18] = test: Induction of cell cycle arrest in human SiHa cells assessed as accumulation of cells at S pahse at 10 uM incubated after 48 hrs by PI staining based flow cytometry (reference value: 8.51 %); type: functional
SiHa [19] = test: Induction of apoptosis in human SiHa cells assessed as early apoptotic cells at 10 uM incubated after 48 hrs by annexin V-FITC/PI staining based flow cytometry (reference value: 2.05 %); type: functional
[20] = molecular target: T1, Protein cereblon/Heat shock protein HSP 90-alpha/Heat shock protein HSP 90-beta (Homo sapiens); test: Protac activity at CRBN/Hsp90 in human SiHa cells assessed as induction of Hsp90 degradation at 1 uM incubated for 10 hrs by Western blot analysis; type: cell-based
SiHa [21] = test: Synergistic antiproliferative activity against human SiHa cells assessed as combination index at 0.5 uM incubated for 72 hrs in presence of 31.62 uM cisplatin by CCK-8 assay; type: functional
SiHa [22] = test: Induction of cell cycle arrest in human SiHa cells assessed as accumulation of cells at G2/M pahse at 1 uM incubated after 48 hrs by PI staining based flow cytometry (reference value: 7.37 %); type: functional
SiHa [23] = test: Synergistic antiproliferative activity against human SiHa cells assessed as combination index at 0.1 uM incubated for 72 hrs in presence of 0.03 uM cisplatin by CCK-8 assay; type: functional
SiHa [24] = test: Induction of cell cycle arrest in human SiHa cells assessed as accumulation of cells at S pahse at 1 uM incubated after 48 hrs by PI staining based flow cytometry (reference value: 8.51 %); type: functional
SiHa [25] = test: Synergistic antiproliferative activity against human SiHa cells assessed as combination index at 0.05 uM incubated for 72 hrs in presence of 0.1 uM cisplatin by CCK-8 assay; type: functional
SiHa [26] = test: Synergistic antiproliferative activity against human SiHa cells assessed as combination index at 0.75 uM incubated for 72 hrs in presence of 1 uM cisplatin by CCK-8 assay; type: functional
SiHa [27] = test: Synergistic antiproliferative activity against human SiHa cells assessed as combination index at 0.05 uM incubated for 72 hrs in presence of 0.32 uM cisplatin by CCK-8 assay; type: functional
SiHa [28] = test: Synergistic antiproliferative activity against human SiHa cells assessed as combination index at 0.5 uM incubated for 72 hrs in presence of 3.16 uM cisplatin by CCK-8 assay; type: functional
SiHa [29] = test: Synergistic antiproliferative activity against human SiHa cells assessed as combination index at 0.75 uM incubated for 72 hrs in presence of 0.01 uM cisplatin by CCK-8 assay; type: functional
[30] = molecular target: T1, Protein cereblon/Heat shock protein HSP 90-alpha/Heat shock protein HSP 90-beta (Homo sapiens); test: Protac activity at CRBN/Hsp90 in human SiHa cells assessed as induction of Hsp90 degradation at 0.05 uM incubated for 2 hrs in presence of SNX-5422 by Western blot analysis; type: cell-based
SiHa [31] = test: Synergistic antiproliferative activity against human SiHa cells assessed as combination index at 0.5 uM incubated for 72 hrs in presence of 0.01 uM cisplatin by CCK-8 assay; type: functional
[32] = molecular target: T1, Protein cereblon/Heat shock protein HSP 90-alpha/Heat shock protein HSP 90-beta (Homo sapiens); test: Protac activity at CRBN/Hsp90 in human SiHa cells assessed as induction of Hsp90 degradation at 0.05 uM incubated for 2 hrs in presence of bortezomib by Western blot analysis; type: cell-based
SiHa [33] = test: Induction of apoptosis in human SiHa cells assessed as late apoptotic cells at 0.05 uM incubated after 48 hrs by annexin V-FITC/PI staining based flow cytometry (reference value: 6.93 %); type: functional
SiHa [34] = test: Inhibition of cell migration in human SiHa cells at 0.5 uM measured after 48 hrs by microscope based wound healing assay relative to control; type: functional

**Q.** Which results are given for `CC1(C)CC(=O)c2c(C(F)(F)F)nn(-c3ccc(C(N)=O)c(N[C@H]4CC[C@H](OC(=O)CNC(=O)CCCCCCCNc5cccc6c5CN(C5CCC(=O)NC5=O)C6=O)CC4)c3)c2C1` (some centres undefined)?
**A.** CI (SiHa [1]): 0.21; Activity (SiHa [2]): Dose-Dependent Effect; Activity [3]: Dose-Dependent Effect; CI (SiHa [4]): 0.74; CI (SiHa [5]): 0.51; Activity [6]: inactive; CI (SiHa [7]): 0.53; CI (SiHa [8]): 0.18; Activity (SiHa [9]): 24.06%; CI (SiHa [10]): 0.95; Activity (SiHa [11]): 24.2%; Activity (SiHa [12]): 0.29%; CI (SiHa [13]): 0.27; CI (SiHa [14]): 1.02; Activity (SiHa [15]): 2.44%; inhibition (SiHa [16]): Active; CI (SiHa [17]): 2.19; Activity (SiHa [18]): 13.6%; Activity (SiHa [19]): 20.83%; Activity [20]: Active; CI (SiHa [21]): 0.26; Activity (SiHa [22]): 27.12%; CI (SiHa [23]): 0.49; Activity (SiHa [24]): 13.56%; CI (SiHa [25]): 0.36; CI (SiHa [26]): 0.17; CI (SiHa [27]): 0.38; CI (SiHa [28]): 0.14; CI (SiHa [29]): 0.2; Activity [30]: inactive; CI (SiHa [31]): 0.18; Activity [32]: inactive; Activity (SiHa [33]): 7.4%; inhibition at 0.5 µM (SiHa [34]): ~100%
